Experimental data published in publication PMC11377542, “An artificial intelligence accelerated virtual screening platform for drug discovery” (Nature Communications, 2024).
Where “and” joins values, the source holds several entries; their conditions need not be identical. Equal values may be shown once. Read-outs that look alike come from different tables or passages of the source.

Legend:
[1] = molecular target: T1, KLHDC2 (Homo sapiens, UniProt Q9Y2U9); test: Octet BioLayer Interferometry competition assay (biotinylated SelK peptide / GST-KLHDC2); format: binding; conditions: BLI competition, C29 at 0-30 µM, 50 nM GST-KLHDC2
T1 construct: human KLHDC2 (UniProt: Q9Y2U9, amino acid 1–362); made in house; host or cells: HighFive insect cells (baculovirus, pFastBac)
T1 sequence (Q9Y2U9 1-362): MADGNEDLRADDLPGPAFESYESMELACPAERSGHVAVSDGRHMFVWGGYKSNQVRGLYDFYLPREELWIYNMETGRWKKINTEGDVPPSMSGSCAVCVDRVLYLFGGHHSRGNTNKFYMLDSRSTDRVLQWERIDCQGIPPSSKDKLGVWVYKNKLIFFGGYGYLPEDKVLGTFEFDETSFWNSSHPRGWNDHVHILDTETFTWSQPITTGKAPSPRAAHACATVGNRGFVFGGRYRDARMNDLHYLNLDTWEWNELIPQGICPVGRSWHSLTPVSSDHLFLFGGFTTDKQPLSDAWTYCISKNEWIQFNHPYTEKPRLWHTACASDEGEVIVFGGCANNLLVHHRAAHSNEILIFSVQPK
Protocol: Octet BioLayer interferometry competition assay monitoring the ability of C29 to interfere with the binding between the biotinylated 12 aa SelK peptide and GST-KLHDC2 was monitored using the Octet Red 96 (ForteBio, Pall Life Sciences) following the manufacturer’s procedures. The reaction was carried out in black 96 well plates maintained at 30 °C. The reaction volume was 200 μL in each well. The Octet buffer used throughout the experiment contained 20 mM Tris-HCl, 200 mM NaCl, 5 mM DTT and 0.1% BSA, pH 8.0. The Loading buffer contained the Octet buffer and biotinylated 12 aa SelK peptide, at a final concentration of 200 nM. […] The binding of the analyte GST-KLHDC2 in the presence or absence of the C29, to the optical probes was measured simultaneously using instrumental defaults for 225 sec as the probes were then incubated in Association buffer. The dissociation was measured for 600 sec while the probes were incubated in Octet buffer. […] The data were analyzed by the Octet data analysis software version 9.0.. […] The IC50 value was calculated using Prism 8 (GraphPad) from the nonlinear regression curve fit of the response values vs. log competitor concentration.
Supplementary Fig. 14 | BioLayer Interferometry competition assay of compound 29. […] The binding of the analyte GST-KLHDC2 in the presence or absence of the C29, to the loaded optical probes was measured in the association buffer. […]

[2] = molecular target: T1, KLHDC2; test: AlphaLISA competition assay (displacement of SelK C-end degron peptide from GST-KLHDC2); format: binding; conditions: IC50, competition with biotinylated 12 aa SelK degron peptide; 12-point titration, n = 3 technical replicates
Description: We took the top-ranked 1000 compounds and filtered out compounds with low predicted solubility, unsatisfied hydrogen bonds in the bound conformation, and followed by similarity clustering to reduce the redundancy in ligand structures. A total of 54 molecules that passed the filtering and clustering were manually examined for favorable interactions and geometries in PyMol[34]. Finally, 37 compounds were chosen for chemical synthesis. Out of these, 29 compounds were successfully synthesized (Supplementary Fig. 13) and characterized in an AlphaLISA competition assay, in which each compound was tested for its ability to compete with a diglycine-containing SelK C-end degron peptide for binding KLHDC2. […] This single digit μM IC50 was further confirmed in a competition assay using BioLayer Interferometry (Supplementary Fig. 14).
The kelch repeat domain of human KLHDC2 (UniProt: Q9Y2U9, amino acid 1–362) was subcloned into the pFastBac vector with an N-terminally fused glutathione-S-transferase (GST), and a TEV-cleavage site. A recombinant baculovirus was produced and amplified three times in Sf9 monolayer cells to produce P4. The P4 virus was used to infect HighFive suspension insect cell cultures to produce the recombinant GST-KLHDC2 protein. The cells were harvested 2–3 days post-infection, re-suspended, and lysed in lysis buffer (20 mM Tris, pH 8.0, 200 mM NaCl, 5 mM DTT) in the presence of protease inhibitors (1 μg/ml Leupeptin, 1 μg/ml Pepstatin and 100 μM PMSF) using a microfluidizer. The GST-KLHDC2 protein was isolated from the soluble cell lysate by PierceTM Glutathione Agarose (Thermo Scientific). For AlphaLISA competition assays, the GST-tagged KLHDC2 was further purified by Q Sepharose High-Performance resin (GE Healthcare). The NaCl eluates were subjected to a Superdex-200 size exclusion chromatography column (GE Healthcare). All samples were flash-frozen in liquid nitrogen for storage prior to use. For protein crystallization, the kelch repeat domain of human KLHDC2 (amino acids 22–362) was subcloned into the pET vector with an N-terminally fused His-elongation factor Ts (TSF) and a TEV-cleavage site. The His-TSF-KLHDC2 protein was overexpressed and purified from BL21 (DE3) E. coli cells. Bacterial cells transformed with the pET-based expression plasmid were grown in LB broth to an OD600 of 0.8–1 and induced with 0.5 mM IPTG. Cells were harvested, re-suspended, and lysed in lysis buffer (20 mM Tris, pH 8.0, 200 mM NaCl, 20 mM imidazole) in the presence of protease inhibitors (1 μg mL–1 leupeptin, 1 μg mL–1 pepstatin and 100 μM phenylmethylsulfonyl fluoride) using a microfluidizer. The His-TSF-KLHDC2 protein was isolated from the soluble cell lysate by HisPurTM Ni-NTA Superflow Agarose (Thermo Fisher Scientific, Waltham, Massachusetts). After TEV cleavage of the His-TSF, KLHDC2 was further purified by Mono Q™ 5/50 GL (GE Healthcare, Chicago, Illinois). The NaCl eluates were subjected to Superdex-200 size-exclusion chromatography (GE Healthcare). Native mass spectrometry was used to confirm KLHDC2 in its apo form. The samples were concentrated by ultrafiltration to 10–22 mg mL−1. All samples were flash-frozen in liquid nitrogen for storage prior to use.
AlphaLISA assays for determining and measuring protein-protein interactions were performed using an EnSpire reader (PerkinElmer). GST-tagged KLHDC2 was attached to anti-GST AlphaLISA acceptor beads. Synthetic N-terminal biotinylated 12 aa SelK degron peptide ([Biotin]HLRGSPPPMAGG[C) (Bio-Synthesis, Inc.) was immobilized to streptavidin-coated AlphaLISA donor beads. The donor and acceptor beads were brought into proximity by the interactions between the SelK peptide and KLHDC2. Excitation of the donor beads by a laser beam of 680 nm promotes the formation of singlet oxygen. When an acceptor bead is in close proximity, the singlet oxygen reacts with thioxene derivatives in the acceptor beads and causes the emission of 615 nm photons, which are detected as the binding signal. […]

[3] = molecular target: T2, human NaV1.5 (Homo sapiens, UniProt Q14524); test: Whole-cell patch-clamp electrophysiology on human NaV1.5 stably expressed in HEK-293 cells; format: cell-based; conditions: -80 mV holding potential (inactivated state); mean
T2 construct: expressed in transfected cells
Protocol: (§1) HEK-293 cells stably expressing human NaV1.5 and NaV1.7 were obtained from Dr. Chris Lossin (UC Davis, CA). HEK293 cells stably expressing HERG (hKv11.1) were a gift from Craig January (University of Wisconsin, Madison). Cells were cultured in complete DMEM supplemented with 10% FBS, 1% penicillin/streptomycin, and G418. All manual whole-cell patch-clamp recordings were performed at room temperature (22–24 °C) using an EPC-10 amplifier (HEKA Electronik, Lambrecht/Pfalz, Germany) on cells that were grown to 60–80% confluency, lifted with TrypLE, and plated onto poly-l-lysine–coated coverslips. External bath solution contains (in mM) 160 NaCl, 4.5 KCl, 2 CaCl2, 1 MgCl2, 10 HEPES (pH 7.4 and 305 mOsm) as. Patch pipettes were heat-pulled from soda lime glass (micro-hematocrit tubes, Kimble Chase, Rochester, NY) and had resistances of 2–3 MΩ when filled with an internal solution. […] Inhibition of currents in the resting state was recorded using a holding potential of − 120 mV. Control test currents were monitored for up to 5–10 min to ensure that the amplitude and kinetics of the response were stable. […] The percent reduction of HERG tail current amplitude by the compounds was determined. The percent of a block of tail current amplitude by the drugs was determined and data are shown as mean +/− SD (n = 3–4 per data point).

[4] = molecular target: T3, hNaV1.7 channel (Homo sapiens, UniProt Q15858); test: Whole-cell patch-clamp electrophysiology on hNaV1.7 stably expressed in HEK-293 cells; format: cell-based; conditions: for IC50: mean
T3 construct: expressed in transfected cells
Description: We first clustered the top 100,000 ranked small molecules, then applied filters on the top 1000 cluster representative molecules. A total of 160 molecules that passed the clustering and filtering were examined manually. To ensure the chemical novelty of our selection, we specifically excluded molecules that contain the known arylsulfonamide warhead or structurally resemble antihistamines or beta-receptor blockers. Finally, ten molecules with Tanimoto similarities of less than 0.33 to the known inhibitors of NaV1.7 from the ChEMBL database[43],[44] were selected for synthesis. Of these, nine were successfully synthesized (Supplementary Fig. 16), and their activities were measured using the whole-cell patch-clamp electrophysiology assay on hNaV1.7 channel stably expressed in HEK-293 cells as described in Methods.
HEK-293 cells stably expressing human NaV1.5 and NaV1.7 were obtained from Dr. Chris Lossin (UC Davis, CA). HEK293 cells stably expressing HERG (hKv11.1) were a gift from Craig January (University of Wisconsin, Madison). Cells were cultured in complete DMEM supplemented with 10% FBS, 1% penicillin/streptomycin, and G418. All manual whole-cell patch-clamp recordings were performed at room temperature (22–24 °C) using an EPC-10 amplifier (HEKA Electronik, Lambrecht/Pfalz, Germany) on cells that were grown to 60–80% confluency, lifted with TrypLE, and plated onto poly-l-lysine–coated coverslips. External bath solution contains (in mM) 160 NaCl, 4.5 KCl, 2 CaCl2, 1 MgCl2, 10 HEPES (pH 7.4 and 305 mOsm) as. Patch pipettes were heat-pulled from soda lime glass (micro-hematocrit tubes, Kimble Chase, Rochester, NY) and had resistances of 2–3 MΩ when filled with an internal solution. Patch recordings of NaV1.5 and NaV1.7 channels were done using a cesium fluoride-based internal solution containing (in mM) 10 NaF, 110 CsF, 20 CsCl, 10 HEPES, 2 EGTA, (pH 7.4, 310 mOsm). Recordings of HERG channels were conducted using a potassium fluoride-based internal solution with added ATP (160 mM KF, 2 mM MgCl2, 10 mM EGTA, 10 mM HEPES, 4 mM NaATP, pH = 7.2 and 300–320 mOsm). Data acquisition and analysis were performed with Pulse-PulseFit (HEKA Electronik GmbH, Germany), IgorPro (WaveMetrics, Portland, OR), and Origin 9.0 software (OriginLab Corporation, Northampton, MA). To investigate specifically the inactivated state block of NaV1.7 and NaV1.5, holding potentials were set at the V1/2 of maximal inactivation (− 70 mV and − 80 mV, respectively) before voltage stepping to − 150 mV for 20 msec, and then 0 mV for 50 msec to elicit inward currents. Inhibition of currents in the resting state was recorded using a holding potential of − 120 mV. Control test currents were monitored for up to 5–10 min to ensure that the amplitude and kinetics of the response were stable. Series resistance was compensated to 80–90% and linear leak currents and capacitance artifacts were corrected using a P/4 subtraction method. The pulse interval was 0.1 Hz. For all experiments, stock solutions of the drugs were prepared fresh from 10 mM stocks in DMSO and test solutions prepared in external bath solutions were applied to individual cells into the recording bath. […] The percent reduction of HERG tail current amplitude by the compounds was determined. The percent of a block of tail current amplitude by the drugs was determined and data are shown as mean +/− SD (n = 3–4 per data point).

[5] = molecular target: T4, HERG (hKv11.1) (Homo sapiens, UniProt Q12809); test: Whole-cell patch-clamp electrophysiology on HEK293 cells stably expressing HERG, tail current; format: cell-based; conditions: mean
T4 construct: expressed in transfected cells
Protocol: as §1

T3 sequence (Q15858 whole entry): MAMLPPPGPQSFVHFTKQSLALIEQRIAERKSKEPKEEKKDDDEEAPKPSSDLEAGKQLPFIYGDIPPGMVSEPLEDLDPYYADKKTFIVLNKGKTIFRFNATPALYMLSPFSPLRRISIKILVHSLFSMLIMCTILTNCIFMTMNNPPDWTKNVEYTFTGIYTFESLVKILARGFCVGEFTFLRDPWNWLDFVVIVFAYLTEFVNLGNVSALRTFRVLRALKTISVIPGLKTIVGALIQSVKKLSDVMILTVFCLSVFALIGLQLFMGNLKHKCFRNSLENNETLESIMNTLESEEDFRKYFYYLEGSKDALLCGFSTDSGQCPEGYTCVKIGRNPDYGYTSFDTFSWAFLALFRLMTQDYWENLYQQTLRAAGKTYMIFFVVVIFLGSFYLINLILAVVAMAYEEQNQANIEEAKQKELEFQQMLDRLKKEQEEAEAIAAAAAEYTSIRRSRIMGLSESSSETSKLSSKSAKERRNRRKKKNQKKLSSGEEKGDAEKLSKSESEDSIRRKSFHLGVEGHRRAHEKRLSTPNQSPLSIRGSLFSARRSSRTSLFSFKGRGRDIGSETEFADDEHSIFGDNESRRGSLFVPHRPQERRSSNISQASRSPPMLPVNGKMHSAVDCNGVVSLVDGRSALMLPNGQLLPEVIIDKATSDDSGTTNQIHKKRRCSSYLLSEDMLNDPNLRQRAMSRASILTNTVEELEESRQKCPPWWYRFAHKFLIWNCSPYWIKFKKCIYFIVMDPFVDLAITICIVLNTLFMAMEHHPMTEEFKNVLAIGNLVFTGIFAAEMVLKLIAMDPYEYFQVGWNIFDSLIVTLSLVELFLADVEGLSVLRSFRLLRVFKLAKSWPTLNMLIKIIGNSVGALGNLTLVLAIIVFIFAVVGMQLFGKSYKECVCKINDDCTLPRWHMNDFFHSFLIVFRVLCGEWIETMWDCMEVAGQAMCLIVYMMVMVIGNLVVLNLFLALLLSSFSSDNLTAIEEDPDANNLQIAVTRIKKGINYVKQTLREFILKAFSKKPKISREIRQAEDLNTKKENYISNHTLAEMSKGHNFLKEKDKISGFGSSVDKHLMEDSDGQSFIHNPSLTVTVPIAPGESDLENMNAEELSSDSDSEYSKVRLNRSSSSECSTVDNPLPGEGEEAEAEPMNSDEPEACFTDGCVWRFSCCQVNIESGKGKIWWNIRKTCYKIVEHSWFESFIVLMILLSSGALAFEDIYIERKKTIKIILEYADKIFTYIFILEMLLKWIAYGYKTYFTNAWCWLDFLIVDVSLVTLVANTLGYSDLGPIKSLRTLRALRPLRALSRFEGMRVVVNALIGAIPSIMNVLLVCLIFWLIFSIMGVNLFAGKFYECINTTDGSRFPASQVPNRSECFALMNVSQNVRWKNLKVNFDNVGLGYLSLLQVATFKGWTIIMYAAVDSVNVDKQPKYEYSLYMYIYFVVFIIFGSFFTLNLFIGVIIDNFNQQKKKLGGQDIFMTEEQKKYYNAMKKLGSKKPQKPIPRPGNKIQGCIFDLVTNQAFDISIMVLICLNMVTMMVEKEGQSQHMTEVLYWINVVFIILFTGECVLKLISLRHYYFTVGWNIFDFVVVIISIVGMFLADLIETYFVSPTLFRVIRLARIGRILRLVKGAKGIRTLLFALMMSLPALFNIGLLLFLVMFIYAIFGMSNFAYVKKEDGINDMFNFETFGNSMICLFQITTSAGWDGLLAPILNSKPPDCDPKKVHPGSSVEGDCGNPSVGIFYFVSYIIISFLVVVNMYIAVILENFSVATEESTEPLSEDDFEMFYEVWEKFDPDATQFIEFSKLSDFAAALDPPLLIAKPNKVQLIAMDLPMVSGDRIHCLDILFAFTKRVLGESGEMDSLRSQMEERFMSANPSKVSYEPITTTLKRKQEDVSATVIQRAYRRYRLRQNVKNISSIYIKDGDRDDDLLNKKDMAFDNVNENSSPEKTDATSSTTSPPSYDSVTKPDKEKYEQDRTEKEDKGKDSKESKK
T2 sequence (Q14524 whole entry): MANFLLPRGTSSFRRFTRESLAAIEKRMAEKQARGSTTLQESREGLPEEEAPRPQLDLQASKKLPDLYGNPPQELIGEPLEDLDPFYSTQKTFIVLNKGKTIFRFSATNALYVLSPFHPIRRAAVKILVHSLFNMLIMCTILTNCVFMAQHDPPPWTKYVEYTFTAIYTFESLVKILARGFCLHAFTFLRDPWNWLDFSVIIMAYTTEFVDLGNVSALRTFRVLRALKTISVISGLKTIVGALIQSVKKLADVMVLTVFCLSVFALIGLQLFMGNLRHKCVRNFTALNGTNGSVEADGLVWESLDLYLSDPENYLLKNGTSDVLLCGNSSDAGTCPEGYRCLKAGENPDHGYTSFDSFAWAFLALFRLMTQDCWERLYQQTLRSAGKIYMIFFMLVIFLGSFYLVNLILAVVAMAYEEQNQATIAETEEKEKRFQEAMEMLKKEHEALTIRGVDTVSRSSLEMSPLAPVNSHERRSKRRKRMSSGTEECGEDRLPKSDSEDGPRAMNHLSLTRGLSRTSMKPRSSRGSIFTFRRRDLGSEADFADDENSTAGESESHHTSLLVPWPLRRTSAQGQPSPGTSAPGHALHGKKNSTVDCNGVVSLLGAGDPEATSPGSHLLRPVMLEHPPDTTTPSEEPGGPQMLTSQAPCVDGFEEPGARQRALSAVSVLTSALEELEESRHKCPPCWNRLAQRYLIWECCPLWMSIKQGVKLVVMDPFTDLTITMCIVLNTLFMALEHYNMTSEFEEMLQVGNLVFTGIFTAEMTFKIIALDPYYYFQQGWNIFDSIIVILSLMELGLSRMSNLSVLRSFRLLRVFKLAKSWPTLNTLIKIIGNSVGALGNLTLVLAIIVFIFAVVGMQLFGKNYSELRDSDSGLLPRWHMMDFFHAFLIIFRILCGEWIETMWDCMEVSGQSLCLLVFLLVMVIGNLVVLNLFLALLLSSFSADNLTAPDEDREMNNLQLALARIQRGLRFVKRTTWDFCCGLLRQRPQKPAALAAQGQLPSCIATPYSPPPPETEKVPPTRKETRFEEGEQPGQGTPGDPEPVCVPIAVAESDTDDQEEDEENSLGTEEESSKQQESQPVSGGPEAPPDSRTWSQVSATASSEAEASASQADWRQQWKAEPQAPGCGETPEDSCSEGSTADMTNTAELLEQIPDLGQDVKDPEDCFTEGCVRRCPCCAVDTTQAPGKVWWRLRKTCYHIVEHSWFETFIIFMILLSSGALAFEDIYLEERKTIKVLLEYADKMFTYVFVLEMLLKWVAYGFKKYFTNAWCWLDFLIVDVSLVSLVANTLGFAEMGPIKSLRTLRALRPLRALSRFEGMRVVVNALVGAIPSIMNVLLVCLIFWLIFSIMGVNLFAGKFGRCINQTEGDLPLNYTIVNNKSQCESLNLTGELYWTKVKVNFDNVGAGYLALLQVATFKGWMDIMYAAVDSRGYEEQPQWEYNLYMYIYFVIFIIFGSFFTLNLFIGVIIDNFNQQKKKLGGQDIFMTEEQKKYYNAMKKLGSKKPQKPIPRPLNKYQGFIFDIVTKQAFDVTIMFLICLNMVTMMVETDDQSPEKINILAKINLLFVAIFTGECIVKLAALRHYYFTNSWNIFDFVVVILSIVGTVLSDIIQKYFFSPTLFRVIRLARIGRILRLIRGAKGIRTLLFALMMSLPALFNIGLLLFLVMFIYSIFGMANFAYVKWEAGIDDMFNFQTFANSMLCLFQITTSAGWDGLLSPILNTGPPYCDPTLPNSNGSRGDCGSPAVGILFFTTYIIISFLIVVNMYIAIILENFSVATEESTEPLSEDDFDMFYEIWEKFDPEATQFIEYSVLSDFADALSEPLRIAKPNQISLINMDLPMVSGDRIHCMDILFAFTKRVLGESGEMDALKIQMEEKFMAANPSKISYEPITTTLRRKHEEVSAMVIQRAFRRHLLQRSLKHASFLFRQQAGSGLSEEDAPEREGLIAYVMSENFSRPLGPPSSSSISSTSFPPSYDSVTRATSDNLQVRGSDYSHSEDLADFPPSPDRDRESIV
T4 sequence (Q12809 whole entry): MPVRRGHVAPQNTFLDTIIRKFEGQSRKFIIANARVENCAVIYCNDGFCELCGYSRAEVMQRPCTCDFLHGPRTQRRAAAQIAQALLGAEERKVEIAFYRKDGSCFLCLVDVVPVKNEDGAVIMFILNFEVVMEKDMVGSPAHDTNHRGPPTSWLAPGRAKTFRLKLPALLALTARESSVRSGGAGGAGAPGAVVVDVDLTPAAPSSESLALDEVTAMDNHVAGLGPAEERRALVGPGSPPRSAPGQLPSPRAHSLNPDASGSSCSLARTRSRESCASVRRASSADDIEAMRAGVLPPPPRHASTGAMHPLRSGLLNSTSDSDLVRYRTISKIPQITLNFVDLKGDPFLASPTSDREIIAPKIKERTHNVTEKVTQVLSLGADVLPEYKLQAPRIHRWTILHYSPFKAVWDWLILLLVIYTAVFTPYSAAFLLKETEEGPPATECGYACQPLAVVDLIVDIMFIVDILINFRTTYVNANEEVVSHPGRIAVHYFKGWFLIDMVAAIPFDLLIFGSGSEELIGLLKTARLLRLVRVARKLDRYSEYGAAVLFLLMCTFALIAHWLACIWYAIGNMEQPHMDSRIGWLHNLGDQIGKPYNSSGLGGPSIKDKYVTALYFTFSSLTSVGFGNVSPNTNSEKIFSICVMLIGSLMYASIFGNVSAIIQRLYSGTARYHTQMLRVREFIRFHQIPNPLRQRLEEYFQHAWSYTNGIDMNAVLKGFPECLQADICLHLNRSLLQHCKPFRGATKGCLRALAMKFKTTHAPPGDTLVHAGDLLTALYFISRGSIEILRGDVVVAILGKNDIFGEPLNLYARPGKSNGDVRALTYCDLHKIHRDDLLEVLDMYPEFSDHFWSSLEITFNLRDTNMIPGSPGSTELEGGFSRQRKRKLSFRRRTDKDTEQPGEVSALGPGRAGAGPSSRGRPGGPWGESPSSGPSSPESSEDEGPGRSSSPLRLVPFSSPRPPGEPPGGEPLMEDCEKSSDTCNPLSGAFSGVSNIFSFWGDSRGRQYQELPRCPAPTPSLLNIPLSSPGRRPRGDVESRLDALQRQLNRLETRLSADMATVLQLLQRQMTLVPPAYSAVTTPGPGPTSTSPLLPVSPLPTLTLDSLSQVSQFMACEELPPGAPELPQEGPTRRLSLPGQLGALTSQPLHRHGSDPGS

Row | Compound | IC50 [1] | IC50 [2] | IC50 [3] | IC50 ([4]; NaV1.7 inactivated state, -70 mV holding potential, read-out: inactivated-state IC50) | IC50 ([4]; NaV1.7 resting state, -120 mV holding potential, read-out: resting state IC50) | selectivity for hNaV1.7 versus hNaV1.5 and hERG channels ([4]; in words) | state dependence of NaV1.7 inhibition ([4]; inactivated versus resting state, in words) | IC50 [5]
1 | CC(C)(C)c1ccc(CSCC(=O)NCc2cn(CC(=O)O)nn2)cc1 [Compound C29] | single digit | ~3 µM and 2.9 µM | – | – | – | – | – | –
2 | Cc1cc(C(C)(C)C)ccc1OCC(O)CNCc1cc(C)c(C)s1 (centres unmarked) [Compound Z8739902234, CC=1C=C(CNCC(O)COC=2C=CC(=CC2C)C(C)(C)C)SC1C] | – | – | 5.14 µM | 1.33 µM and 1.3 µM | 13.1 µM | moderate selectivity | state dependent | 6.27 µM
